# Data from ChEMBL document CHEMBL3885881, “DrugMatrix”.
# Organism: Rattus norvegicus
# Assay: DrugMatrix - Regimen: Daily Repeat
# Assay type: toxicity, organism-based, Sprague-Dawley
# Set-up: regimen Daily Repeat, gender Male, age 6-8 weeks
# Settings: in vivo, po, route oral GAVAGE, vehicle 100 % WATER; for ABSOLUTE BASOPHIL / ABSOLUTE EOSINOPHIL / ABSOLUTE LYMPHOCYTE / ABSOLUTE MONOCYTE / ABSOLUTE SEGMENTED NEUTROPHIL / BASOPHIL / EOSINOPHIL / ERYTHROCYTE COUNT / HEMATOCRIT / HEMOGLOBIN / LEUKOCYTE COUNT / LYMPHOCYTE / MEAN CORPUSCULAR HEMOGLOBIN / MEAN CORPUSCULAR HEMOGLOBIN CONCENTRATION / MEAN CORPUSCULAR VOLUME / MONOCYTE / NEUTROPHIL / NUCLEATED RED BLOOD CELLS / PLATELET COUNT: tissue Blood; for ALANINE AMINOTRANSFERASE / ALBUMIN / ALKALINE PHOSPHATASE / ASPARTATE AMINOTRANSFERASE / BLOOD UREA NITROGEN / CARBON DIOXIDE / CHLORIDE / CHOLESTEROL / CREATINE PHOSPHOKINASE / CREATININE / GLUCOSE / LACTATE DEHYDROGENASE / LIPASE / PHOSPHORUS / POTASSIUM / SODIUM / TOTAL BILIRUBIN / TOTAL PROTEIN / URIC ACID: tissue Plasma
# [1] = 0 mg/kg, 72 h, dose level Control, time 3 day
# [2] = 0 mg/kg, 120 h, dose level Control, time 5 day
# [3] = 58 mg/kg, 72 h, dose level Low, time 3 day
structure (smiles),measurement,setting,value
NC12CC3CC(CC(C3)C1)C2 [AMANTADINE],ABSOLUTE BASOPHIL,[1],0 CELLS/uL
same,ABSOLUTE EOSINOPHIL,[1],58.83 CELLS/uL
same,ABSOLUTE LYMPHOCYTE,[1],11823.5 CELLS/uL
same,ABSOLUTE MONOCYTE,[1],169 CELLS/uL
same,ABSOLUTE SEGMENTED NEUTROPHIL,[1],815.33 CELLS/uL
same,BASOPHIL,[1],0%
same,EOSINOPHIL,[1],0.5%
same,ERYTHROCYTE COUNT,[1],5.52 x10E6/uL
same,HEMATOCRIT,[1],35.77%
same,HEMOGLOBIN,[1],14.28 G/DL
same,LEUKOCYTE COUNT,[1],12.87 x10E3/uL
same,LYMPHOCYTE,[1],91.67%
same,MEAN CORPUSCULAR HEMOGLOBIN,[1],25.92 pg
same,MEAN CORPUSCULAR HEMOGLOBIN CONCENTRATION,[1],39.95 G/DL
same,MEAN CORPUSCULAR VOLUME,[1],64.85 fL
same,MONOCYTE,[1],1.33%
same,NEUTROPHIL,[1],6.5%
same,NUCLEATED RED BLOOD CELLS,[1],0 /100WBC
same,PLATELET COUNT,[1],1246.17 x10E3/uL
same,ALANINE AMINOTRANSFERASE,[1],66 u/L
same,ALBUMIN,[1],4.25 G/DL
same,ALKALINE PHOSPHATASE,[1],416 u/L
same,ASPARTATE AMINOTRANSFERASE,[1],106.17 u/L
same,BLOOD UREA NITROGEN,[1],12.67 mg/dL
same,CARBON DIOXIDE,[1],31.83 mmol/L
same,CHLORIDE,[1],102.5 MEQ/L
same,CHOLESTEROL,[1],69 mg/dL
same,CREATINE PHOSPHOKINASE,[1],601.83 u/L
same,CREATININE,[1],0.18 mg/dL
same,GLUCOSE,[1],154.5 mg/dL
same,LACTATE DEHYDROGENASE,[1],301.83 u/L
same,LIPASE,[1],11.17 u/L
same,PHOSPHORUS,[1],12.08 mg/dL
same,POTASSIUM,[1],6.12 MEQ/L
same,SODIUM,[1],145.2 MEQ/L
same,TOTAL BILIRUBIN,[1],0.17 mg/dL
same,TOTAL PROTEIN,[1],6.1 G/DL
same,URIC ACID,[1],1.57 mg/dL
same,ABSOLUTE BASOPHIL,[2],0 CELLS/uL
same,ABSOLUTE EOSINOPHIL,[2],19.33 CELLS/uL
same,ABSOLUTE LYMPHOCYTE,[2],12577.83 CELLS/uL
same,ABSOLUTE MONOCYTE,[2],106.33 CELLS/uL
same,ABSOLUTE SEGMENTED NEUTROPHIL,[2],896.5 CELLS/uL
same,BASOPHIL,[2],0%
same,EOSINOPHIL,[2],0.17%
same,ERYTHROCYTE COUNT,[2],5.84 x10E6/uL
same,HEMATOCRIT,[2],36.88%
same,HEMOGLOBIN,[2],14.48 G/DL
same,LEUKOCYTE COUNT,[2],13.6 x10E3/uL
same,LYMPHOCYTE,[2],92.17%
same,MEAN CORPUSCULAR HEMOGLOBIN,[2],24.85 pg
same,MEAN CORPUSCULAR HEMOGLOBIN CONCENTRATION,[2],39.3 G/DL
same,MEAN CORPUSCULAR VOLUME,[2],63.23 fL
same,MONOCYTE,[2],0.83%
same,NEUTROPHIL,[2],6.83%
same,NUCLEATED RED BLOOD CELLS,[2],0 /100WBC
same,PLATELET COUNT,[2],1223.5 x10E3/uL
same,ALANINE AMINOTRANSFERASE,[2],55.33 u/L
same,ALBUMIN,[2],4.08 G/DL
same,ALKALINE PHOSPHATASE,[2],355.5 u/L
same,ASPARTATE AMINOTRANSFERASE,[2],87.67 u/L
same,BLOOD UREA NITROGEN,[2],15.33 mg/dL
same,CARBON DIOXIDE,[2],33.83 mmol/L
same,CHLORIDE,[2],99.67 MEQ/L
same,CHOLESTEROL,[2],72.17 mg/dL
same,CREATINE PHOSPHOKINASE,[2],268.33 u/L
same,CREATININE,[2],0.15 mg/dL
same,GLUCOSE,[2],152.5 mg/dL
same,LACTATE DEHYDROGENASE,[2],212.67 u/L
same,LIPASE,[2],10.83 u/L
same,PHOSPHORUS,[2],11.65 mg/dL
same,POTASSIUM,[2],6.73 MEQ/L
same,SODIUM,[2],142.43 MEQ/L
same,TOTAL BILIRUBIN,[2],0.23 mg/dL
same,TOTAL PROTEIN,[2],6.07 G/DL
same,URIC ACID,[2],1.7 mg/dL
same,ABSOLUTE BASOPHIL,[3],0 CELLS/uL
same,ABSOLUTE EOSINOPHIL,[3],0 CELLS/uL
same,ABSOLUTE LYMPHOCYTE,[3],14460 CELLS/uL
same,ABSOLUTE MONOCYTE,[3],391.33 CELLS/uL
same,ABSOLUTE SEGMENTED NEUTROPHIL,[3],1148.67 CELLS/uL
same,BASOPHIL,[3],0%
same,EOSINOPHIL,[3],0%
same,ERYTHROCYTE COUNT,[3],5.53 x10E6/uL
same,HEMATOCRIT,[3],35.03%
same,HEMOGLOBIN,[3],14 G/DL
same,LEUKOCYTE COUNT,[3],16 x10E3/uL
same,LYMPHOCYTE,[3],90%
same,MEAN CORPUSCULAR HEMOGLOBIN,[3],25.33 pg
same,MEAN CORPUSCULAR HEMOGLOBIN CONCENTRATION,[3],40 G/DL
same,MEAN CORPUSCULAR VOLUME,[3],63.37 fL
same,MONOCYTE,[3],2.33%
same,NEUTROPHIL,[3],7.67%
same,NUCLEATED RED BLOOD CELLS,[3],0 /100WBC
same,PLATELET COUNT,[3],1206.67 x10E3/uL
same,ALANINE AMINOTRANSFERASE,[3],47.67 u/L
same,ALBUMIN,[3],4.17 G/DL
same,ALKALINE PHOSPHATASE,[3],377.33 u/L
same,ASPARTATE AMINOTRANSFERASE,[3],90 u/L
same,BLOOD UREA NITROGEN,[3],13.33 mg/dL
same,CARBON DIOXIDE,[3],31.67 mmol/L
same,CHLORIDE,[3],102.33 MEQ/L
same,CHOLESTEROL,[3],67 mg/dL
same,CREATINE PHOSPHOKINASE,[3],444.67 u/L
same,CREATININE,[3],0.13 mg/dL
same,GLUCOSE,[3],137.33 mg/dL
same,LACTATE DEHYDROGENASE,[3],367.33 u/L
same,LIPASE,[3],11.67 u/L
same,PHOSPHORUS,[3],12.1 mg/dL
same,POTASSIUM,[3],6.36 MEQ/L
same,SODIUM,[3],145.43 MEQ/L
same,TOTAL BILIRUBIN,[3],0.17 mg/dL
same,TOTAL PROTEIN,[3],5.9 G/DL
same,URIC ACID,[3],1.6 mg/dL
